{
  "source": "patent US11390617B2",
  "about": "“Methods of treating non-Hodgkin lymphoma using 2-(2,6-dioxopiperidin-3-yl)-4-((2-fluoro-4-((3-morpholinoazetidin-1-yl)methyl)benzyl)amino)isoindoline-1,3-dione” (Celgene Corporation, priority 2019, dated 2022)",
  "assay_in_all_cases": "NHL cell line viability/apoptosis 384-well flow cytometry assay",
  "assay_type_in_all_cases": "cell-based",
  "key": {"SU-DHL-5": {"system": "SU-DHL-5", "details": "SU-DHL-5 (DLBCL), 120 hours", "protocol": "(§1) The following exemplary anti-proliferative assay uses exemplary non-Hodgkin lymphoma (NIL) cell lines (including diffuse large B-cell lymphoma (DLBCL), follicular lymphoma (FL), and mantle cell lymphoma (MCL)) (Table 5). The in vitro growth inhibitory activity of Compound 1 described herein was evaluated using a 384-well flow cytometry assay.\n(§2) The cell lines in Table 5 were plated in 384-well flat bottom plates and assessed with increasing concentrations of compound ranging from 0.00015 to 10 μM or dimethyl sulfoxide (DMSO) control. The final concentration of DMSO was 0.1% (v/v). Following the addition of Compound 1 or DMSO and incubation for 120 hours, cell number and cell death were analyzed by flow cytometry (Attune®, Thermo Fisher) using Annexin V and the live-cell impermeant DNA dye, DRAQ7. Phosphatidylserine translocates from the inner layer to the outer layer of the cell membrane early in apoptosis and Annexin V binds to the exposed phosphatidylserine found on the surface of an apoptotic cell. The vital dye DRAQ7 is excluded by intact live cells and only stains cells that have died as a result of apoptosis or necrosis.\n(§3) Flow cytometry data analysis was then performed using the Flow Jo_v10 software to determine the number of viable cells (Annexin V and DRAQ7 double negative staining cells) and percentage of apoptotic cells (Annexin V positive cells) for each condition. The live cell count for every concentration was normalized to the DMSO control (considered as 100%) to calculate the percentage of viable cells remaining after treatment and graphed using GraphPad Prism 7.03. The IC50 (50% inhibitory concentration) and Emax (maximum efficacy achieved) values were then calculated by performing nonlinear regression curve fitting using log(inhibitor) vs. normalized response—variable slope analysis on GraphPad Prism 7.03. Area under the curve (AUC) was calculated by performing area under curve analysis on GraphPad Prism 7.03. Similarly, for apoptosis analysis, the percentage of apoptosis combining both “early” (Annexin V positive and DRAQ7 negative) and “late” apoptosis (Annexin V and DRAQ7 positive) cell gates relative to DMSO was graphed using GraphPad Prism 7.03. The AUC, EC50 (concentration of Compound 1 that produces half-maximal apoptosis response) and Ymax (maximal percentage of apoptosis achieved) values from apoptosis curves were calculated by performing area under curve analysis and nonlinear regression curve fitting using log(agonist) vs. normalized response—Variable slope analysis on GraphPad Prism 7.03.\n(§4) In Table 6, dose-response proliferation curves for the panel of NHL cell lines and non-linear curve-fit regression were used to determine IC50, AUC, and Emax for % viable cells (Emax for viability varies between 100 at low doses and 0 at high doses, which corresponds to inhibition of all viable cells), and dose-response apoptosis curves were used to determine the EC50, AUC, and Ymax for % apoptosis (Ymax for apoptosis varies from 0 at low doses and 100 at higher doses which corresponds to death of all cells). Tumor cells were exposed to serial dilutions (0.00015 to 10 μM) of Compound 1 or dimethyl sulfoxide (DMSO) control for 5 days. Viability and apoptosis for all cell lines was determined by Annexin V/[…] flow cytometry."}, "KARPAS-422": {"system": "KARPAS-422", "details": "KARPAS-422 (DLBCL), 120 hours", "protocol": "as §1, §2, §3, §4"}, "SU-DHL-10": {"system": "SU-DHL-10", "details": "SU-DHL-10 (DLBCL), 120 hours", "protocol": "as §1, §2, §3, §4"}, "NU-DHL-1": {"system": "NU-DHL-1", "details": "NU-DHL-1 (DLBCL), 120 hours", "protocol": "as §1, §2, §3, §4"}, "U-2940": {"system": "U-2940", "details": "U-2940 (DLBCL), 120 hours", "protocol": "as §1, §2, §3, §4"}, "SU-DHL-1": {"system": "SU-DHL-1", "details": "SU-DHL-1 (DLBCL), 120 hours", "protocol": "as §1, §2, §3, §4"}, "OCI-LY18": {"system": "OCI-LY18", "details": "OCI-LY18 (DLBCL), 120 hours", "protocol": "as §1, §2, §3, §4"}, "OCI-LY1": {"system": "OCI-LY1", "details": "OCI-LY1 (DLBCL), 120 hours", "protocol": "as §1, §2, §3, §4"}, "WILL-1": {"system": "WILL-1", "details": "WILL-1 (DLBCL), 120 hours", "protocol": "as §1, §2, §3, §4"}, "VAL": {"system": "VAL", "details": "VAL (DLBCL), 120 hours", "protocol": "as §1, §2, §3, §4"}, "WSU-DLCL2": {"system": "WSU-DLCL2", "details": "WSU-DLCL2 (DLBCL), 120 hours", "protocol": "as §1, §2, §3, §4"}, "[1]": {"details": "Homo sapiens, read-out: IC50 (% Viable Cells)"}, "[2]": {"details": "read-out: IC50 (% Viable Cells)"}},
  "data": [
    {"smiles": "O=C1CC[C@H](N2C(=O)c3cccc(NCc4ccc(CN5CC(N6CCOCC6)C5)cc4F)c3C2=O)C(=O)N1", "note": "[Compound 1, (S)-2-(2,6-dioxopiperidin-3-yl)-4-((2-fluoro-4-((3-morpholinoazetidin-1-yl)methyl)benzyl)amino)isoindoline-1,3-dione]", "values": [
      {"measurement": "EC50", "setting": "SU-DHL-5; Homo sapiens", "value": 3.6, "unit": "nM"},
      {"measurement": "IC50", "setting": "SU-DHL-5; [1]", "value": 2.39, "unit": "nM"},
      {"measurement": "AUC (% Viable Cells)", "setting": "SU-DHL-5", "value": 1.873},
      {"measurement": "AUC (Apoptosis)", "setting": "SU-DHL-5", "value": 934.1},
      {"measurement": "Emax (% Viable Cells)", "setting": "SU-DHL-5", "value": 0.1398, "unit": "%"},
      {"measurement": "Ymax (Apoptosis)", "setting": "SU-DHL-5", "value": 95.23, "unit": "%"},
      {"measurement": "EC50", "setting": "KARPAS-422; Homo sapiens", "value": 46.1, "unit": "nM"},
      {"measurement": "IC50", "setting": "KARPAS-422; [1]", "value": 13.1, "unit": "nM"},
      {"measurement": "AUC (% Viable Cells)", "setting": "KARPAS-422", "value": 19.97},
      {"measurement": "AUC (Apoptosis)", "setting": "KARPAS-422", "value": 911.9},
      {"measurement": "Emax (% Viable Cells)", "setting": "KARPAS-422", "value": 0.8721, "unit": "%"},
      {"measurement": "Ymax (Apoptosis)", "setting": "KARPAS-422", "value": 93.99, "unit": "%"},
      {"measurement": "EC50", "setting": "SU-DHL-10; Homo sapiens, SU-DHL10", "value": 39.4, "unit": "nM"},
      {"measurement": "IC50", "setting": "SU-DHL-10; Homo sapiens, SU-DHL10, read-out: IC50 (% Viable Cells)", "value": 6.1, "unit": "nM"},
      {"measurement": "AUC (% Viable Cells)", "setting": "SU-DHL-10", "value": 10.36},
      {"measurement": "AUC (Apoptosis)", "setting": "SU-DHL-10", "value": 903},
      {"measurement": "Emax (% Viable Cells)", "setting": "SU-DHL-10", "value": 0.6716, "unit": "%"},
      {"measurement": "Ymax (Apoptosis)", "setting": "SU-DHL-10", "value": 92.27, "unit": "%"},
      {"measurement": "EC50", "setting": "NU-DHL-1; Homo sapiens", "value": 1.27, "unit": "nM"},
      {"measurement": "IC50", "setting": "NU-DHL-1; [1]", "value": 1.07, "unit": "nM"},
      {"measurement": "AUC (% Viable Cells)", "setting": "NU-DHL-1", "value": 12.37},
      {"measurement": "AUC (Apoptosis)", "setting": "NU-DHL-1", "value": 981.8},
      {"measurement": "Emax (% Viable Cells)", "setting": "NU-DHL-1", "value": 0.4919, "unit": "%"},
      {"measurement": "Ymax (Apoptosis)", "setting": "NU-DHL-1", "value": 99.17, "unit": "%"},
      {"measurement": "EC50", "setting": "U-2940; Homo sapiens", "value": 31.4, "unit": "nM"},
      {"measurement": "IC50", "setting": "U-2940; [1]", "value": 6.31, "unit": "nM"},
      {"measurement": "AUC (% Viable Cells)", "setting": "U-2940", "value": 70.43},
      {"measurement": "AUC (Apoptosis)", "setting": "U-2940", "value": 792.5},
      {"measurement": "Emax (% Viable Cells)", "setting": "U-2940", "value": 5.192, "unit": "%"},
      {"measurement": "Ymax (Apoptosis)", "setting": "U-2940", "value": 82.19, "unit": "%"},
      {"measurement": "EC50", "setting": "SU-DHL-1; Homo sapiens", "value": 1.1, "unit": "nM"},
      {"measurement": "IC50", "setting": "SU-DHL-1; [1]", "value": 0.549, "unit": "nM"},
      {"measurement": "AUC (% Viable Cells)", "setting": "SU-DHL-1", "value": 31.14},
      {"measurement": "AUC (Apoptosis)", "setting": "SU-DHL-1", "value": 690.1},
      {"measurement": "Emax (% Viable Cells)", "setting": "SU-DHL-1", "value": 2.485, "unit": "%"},
      {"measurement": "Ymax (Apoptosis)", "setting": "SU-DHL-1", "value": 73.83, "unit": "%"},
      {"measurement": "EC50", "setting": "OCI-LY18; Homo sapiens", "value": 2.98, "unit": "nM"},
      {"measurement": "IC50", "setting": "OCI-LY18; [1]", "value": 0.944, "unit": "nM"},
      {"measurement": "AUC (% Viable Cells)", "setting": "OCI-LY18", "value": 1.965},
      {"measurement": "AUC (Apoptosis)", "setting": "OCI-LY18", "value": 965.2},
      {"measurement": "Emax (% Viable Cells)", "setting": "OCI-LY18", "value": 0.05973, "unit": "%"},
      {"measurement": "Ymax (Apoptosis)", "setting": "OCI-LY18", "value": 97.44, "unit": "%"},
      {"measurement": "EC50", "setting": "OCI-LY1; Homo sapiens", "value": 33.4, "unit": "nM"},
      {"measurement": "IC50", "setting": "OCI-LY1; [1]", "value": 6, "unit": "nM"},
      {"measurement": "AUC (% Viable Cells)", "setting": "OCI-LY1", "value": 22.77},
      {"measurement": "AUC (Apoptosis)", "setting": "OCI-LY1", "value": 852.3},
      {"measurement": "Emax (% Viable Cells)", "setting": "OCI-LY1", "value": 1.037, "unit": "%"},
      {"measurement": "Ymax (Apoptosis)", "setting": "OCI-LY1", "value": 90.09, "unit": "%"},
      {"measurement": "AUC (% Viable Cells)", "setting": "WILL-1", "value": 233.7},
      {"measurement": "AUC (Apoptosis)", "setting": "WILL-1", "value": 549.4},
      {"measurement": "EC50", "setting": "WILL-1", "value": 2520, "unit": "nM"},
      {"measurement": "Emax (% Viable Cells)", "setting": "WILL-1", "value": 4.216, "unit": "%"},
      {"measurement": "Ymax (Apoptosis)", "setting": "WILL-1", "value": 79.51, "unit": "%"},
      {"measurement": "IC50", "setting": "WILL-1; [2]", "value": 817, "unit": "nM"},
      {"measurement": "AUC (% Viable Cells)", "setting": "VAL", "value": 14.62},
      {"measurement": "AUC (Apoptosis)", "setting": "VAL", "value": 936.7},
      {"measurement": "EC50", "setting": "VAL", "value": 0.605, "unit": "nM"},
      {"measurement": "Emax (% Viable Cells)", "setting": "VAL", "value": 0.9632, "unit": "%"},
      {"measurement": "Ymax (Apoptosis)", "setting": "VAL", "value": 95.68, "unit": "%"},
      {"measurement": "IC50", "setting": "VAL; [2]", "value": 0.57, "unit": "nM"},
      {"measurement": "EC50", "setting": "WSU-DLCL2; Homo sapiens, WSUDLCL2", "value": 84.7, "unit": "nM"},
      {"measurement": "IC50", "setting": "WSU-DLCL2; Homo sapiens, WSUDLCL2, read-out: IC50 (% Viable Cells)", "value": 16.9, "unit": "nM"},
      {"measurement": "AUC (% Viable Cells)", "setting": "WSU-DLCL2", "value": 36.7},
      {"measurement": "AUC (Apoptosis)", "setting": "WSU-DLCL2", "value": 858.9},
      {"measurement": "Emax (% Viable Cells)", "setting": "WSU-DLCL2", "value": 1.387, "unit": "%"},
      {"measurement": "Ymax (Apoptosis)", "setting": "WSU-DLCL2", "value": 92.1, "unit": "%"}
    ]}
  ]
}
